Experimental data from ChEMBL document CHEMBL1201862, “PubChem BioAssay data set” (2004).
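Protocol summary: plate cells (96-well), add compound at 5 concentrations, incubate 48 h, interpolate endpoints linearly. GI50: concentration for 50% inhibition of growth.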 The source made the active and inactive calls. Rule as the data show it: active = GI50 up to about 1.1 µM and inactive = higher.

Key:
Assay in all cases: NCI anticancer screen, dose series, 48 h
A498 = test system: A498
A549 = test system: A549
BT-549 = test system: BT-549
CAKI-1 = test system: CAKI-1
HOP-62 = test system: HOP-62
LOX IMVI = test system: LOX IMVI
MDA-MB-231 = test system: MDA-MB-231
MDA-N = test system: MDA-N
NCI/ADR-RES = test system: NCI/ADR-RES
OVCAR-4 = test system: OVCAR-4
OVCAR-5 = test system: OVCAR-5
SF-268 = test system: SF-268
SK-MEL-28 = test system: SK-MEL-28
SK-MEL-2 = test system: SK-MEL-2
SK-MEL-5 = test system: SK-MEL-5
UACC-62 = test system: UACC-62
HCC 2998 = test system: HCC 2998
SK-OV-3 = test system: SK-OV-3
SNB-75 = test system: SNB-75
SR = test system: SR

SMILES	GI50 (A498)	GI50 (A549)	GI50 (BT-549)	GI50 (CAKI-1)	GI50 (HOP-62)	GI50 (LOX IMVI)	GI50 (MDA-MB-231)	GI50 (MDA-N)	GI50 (NCI/ADR-RES)	GI50 (OVCAR-4)	GI50 (OVCAR-5)	GI50 (SF-268)	GI50 (SK-MEL-28)	GI50 (SK-MEL-2)	GI50 (SK-MEL-5)	GI50 (UACC-62)	GI50 (HCC 2998)	GI50 (SK-OV-3)	GI50 (SNB-75)	GI50 (SR)
NC(=O)Nc1ccc(S(=O)(=O)Nc2ccc(S(N)(=O)=O)cc2)cc1	> 100 µM (inactive)	> 100 µM (inactive)	> 100 µM (inactive)	> 100 µM (inactive)	> 100 µM (inactive)	> 100 µM (inactive)	> 100 µM (inactive)	> 100 µM (inactive)	> 100 µM (inactive)	> 100 µM (inactive)	> 100 µM (inactive)	0.649 µM (active)	> 100 µM (inactive)	> 100 µM (inactive)	> 100 µM (inactive)	> 100 µM (inactive)				
CC(C)(C)CNCCO	> 100 µM (inactive)	> 100 µM (inactive)	> 100 µM (inactive)	> 100 µM (inactive)	> 100 µM (inactive)	> 100 µM (inactive)	> 100 µM (inactive)	> 100 µM (inactive)	> 100 µM (inactive)	> 100 µM (inactive)	> 100 µM (inactive)	> 100 µM (inactive)	> 100 µM (inactive)	> 100 µM (inactive)	> 100 µM (inactive)	> 100 µM (inactive)	> 100 µM (inactive)	> 100 µM (inactive)	> 100 µM (inactive)	
O=C(O)C1C2OC(C(Br)C2Br)C1C(=O)O (stereo not drawn)	> 100 µM (inactive)	> 100 µM (inactive)	> 100 µM (inactive)	> 100 µM (inactive)	> 100 µM (inactive)	> 100 µM (inactive)	> 100 µM (inactive)	> 100 µM (inactive)	> 100 µM (inactive)	> 100 µM (inactive)	> 100 µM (inactive)	> 100 µM (inactive)	> 100 µM (inactive)	> 100 µM (inactive)	> 100 µM (inactive)	> 100 µM (inactive)		> 100 µM (inactive)	> 100 µM (inactive)	
COc1ccc(CNc2nc3cc(C(F)(F)F)ccc3nc2-c2ccccc2)cc1OC		26.9 µM (inactive)	47.5 µM (inactive)	18 µM (inactive)	23.9 µM (inactive)	24.7 µM (inactive)	53.8 µM (inactive)	37.2 µM (inactive)	54.5 µM (inactive)	43.1 µM (inactive)	71.1 µM (inactive)	62.8 µM (inactive)		68.9 µM (inactive)	17.9 µM (inactive)	50.6 µM (inactive)	22.6 µM (inactive)	> 100 µM (inactive)	37.3 µM (inactive)	15.3 µM (inactive)
CC1=C(\C=C/C(C)=C/C=C/C(C)=C/C=C/C=C(C)\C=C\C=C(C)/C=C/C2=C(C)CCCC2(C)C)C(C)(C)CCC1	> 100 µM (inactive)	> 10 µM (inactive)	64.4 µM (inactive)		> 100 µM (inactive)	> 100 µM (inactive)	> 100 µM (inactive)	40 µM (inactive)	> 100 µM (inactive)	> 100 µM (inactive)	> 100 µM (inactive)	> 100 µM (inactive)	46.5 µM (inactive)	> 100 µM (inactive)	> 100 µM (inactive)	> 100 µM (inactive)	> 100 µM (inactive)	> 100 µM (inactive)	> 100 µM (inactive)	
CN1CCCC(OC(=O)c2cc3cc(CCl)ccc3oc2=O)C1 (stereo not drawn)		29.8 µM (inactive)	21 µM (inactive)	23.7 µM (inactive)	25.8 µM (inactive)	17 µM (inactive)	21 µM (inactive)	18.2 µM (inactive)	27.9 µM (inactive)	20.3 µM (inactive)	21.6 µM (inactive)	21.7 µM (inactive)	19.5 µM (inactive)	17.6 µM (inactive)	17.3 µM (inactive)	17.3 µM (inactive)	18.3 µM (inactive)	35.2 µM (inactive)	22.2 µM (inactive)	21.9 µM (inactive)
O=c1[nH]nc(-c2ccccc2)n1/N=C/c1c(O)ccc2ccccc12		24.9 µM (inactive)	45.7 µM (inactive)		34.8 µM (inactive)	46.9 µM (inactive)	83.6 µM (inactive)	73.6 µM (inactive)	30.3 µM (inactive)	15.4 µM (inactive)	> 100 µM (inactive)	32.7 µM (inactive)	75.7 µM (inactive)	62.7 µM (inactive)	30.2 µM (inactive)	54.8 µM (inactive)	28.4 µM (inactive)	28.2 µM (inactive)	31.7 µM (inactive)	72.6 µM (inactive)
O=C(/C=C\c1ccc([N+](=O)[O-])cc1)c1ccccc(=O)c1O	2.84 µM (inactive)	0.51 µM (active)	1.72 µM (inactive)	1.32 µM (inactive)	1.88 µM (inactive)	0.449 µM (active)	3.37 µM (inactive)	2.37 µM (inactive)	0.429 µM (active)	2.47 µM (inactive)	2.55 µM (inactive)	0.977 µM (active)	1.41 µM (inactive)	1.89 µM (inactive)	0.558 µM (active)	1.14 µM (inactive)	1.29 µM (inactive)	4.3 µM (inactive)	1.29 µM (inactive)	
COc1cccc(-n2nnc3c(N)nc(N)nc32)c1	> 100 µM (inactive)	> 100 µM (inactive)	> 100 µM (inactive)	> 100 µM (inactive)	> 100 µM (inactive)	> 100 µM (inactive)	> 100 µM (inactive)	> 100 µM (inactive)	> 100 µM (inactive)	> 100 µM (inactive)	> 100 µM (inactive)	5.96 µM (inactive)	> 100 µM (inactive)	> 100 µM (inactive)	> 100 µM (inactive)	33.3 µM (inactive)		> 100 µM (inactive)	15.7 µM (inactive)	
COc1ccc(N2C(=O)/C(=C/c3ccc(N(CCC#N)CCC#N)cc3)N=C2c2ccccc2)c(OC)c1			> 100 µM (inactive)	> 100 µM (inactive)			> 100 µM (inactive)	> 100 µM (inactive)	52.8 µM (inactive)	> 100 µM (inactive)	> 100 µM (inactive)	> 100 µM (inactive)	> 100 µM (inactive)		> 100 µM (inactive)	> 100 µM (inactive)	> 100 µM (inactive)	> 100 µM (inactive)	89.5 µM (inactive)	22.4 µM (inactive)
C1CC[C@H]2SSC3CCCC[C@H]3SSC2C1 (stereo partly drawn)		> 100 µM (inactive)	> 100 µM (inactive)		> 100 µM (inactive)	> 100 µM (inactive)	> 100 µM (inactive)	> 100 µM (inactive)	> 100 µM (inactive)	> 100 µM (inactive)	> 100 µM (inactive)	> 100 µM (inactive)	> 100 µM (inactive)		> 100 µM (inactive)	> 100 µM (inactive)	> 100 µM (inactive)	> 100 µM (inactive)	> 100 µM (inactive)	> 100 µM (inactive)
CCOC(=O)Cc1csc2[n+]1C(=O)/C(=C\c1cccc(Cl)c1Cl)S2		14.8 µM (inactive)	17.6 µM (inactive)	23.6 µM (inactive)	20.8 µM (inactive)	18.4 µM (inactive)	25.9 µM (inactive)	17.7 µM (inactive)	16.7 µM (inactive)	11.6 µM (inactive)	32.6 µM (inactive)	29.2 µM (inactive)	19.5 µM (inactive)	10.6 µM (inactive)	8.93 µM (inactive)	4.94 µM (inactive)	17.7 µM (inactive)	17.3 µM (inactive)	23.8 µM (inactive)	
O=C1Nc2ccccc2/C1=C1/Nc2ccccc2/C1=N\OCCNCC(O)C(O)C(O)C(O)CO (stereo not drawn)		44.4 µM (inactive)	13.9 µM (inactive)	38.5 µM (inactive)	11.7 µM (inactive)	8.53 µM (inactive)	11.2 µM (inactive)	9.89 µM (inactive)	> 50 µM (inactive)	31.5 µM (inactive)	> 50 µM (inactive)	11.9 µM (inactive)	9.73 µM (inactive)	7.91 µM (inactive)	8.36 µM (inactive)	8.93 µM (inactive)	11.8 µM (inactive)	9.66 µM (inactive)	11 µM (inactive)	9.55 µM (inactive)
CCCCOC(=O)C(=O)C(CC(CC)C(=O)c1ccccc1)C(=O)C=C(C)C (stereo not drawn)		> 100 µM (inactive)	> 100 µM (inactive)	> 100 µM (inactive)	> 100 µM (inactive)	> 100 µM (inactive)	> 100 µM (inactive)	> 100 µM (inactive)	> 100 µM (inactive)	> 100 µM (inactive)	> 100 µM (inactive)	> 100 µM (inactive)	> 100 µM (inactive)	> 100 µM (inactive)	> 100 µM (inactive)	> 100 µM (inactive)	> 100 µM (inactive)	> 100 µM (inactive)	> 100 µM (inactive)	
COc1c(C)c(C/C=C(\C)CC/C=C(\C)CC/C=C(\C)CCC=C(C)C)c(OC)c(OC)c1OC		> 100 µM (inactive)	> 100 µM (inactive)	> 100 µM (inactive)	> 100 µM (inactive)	> 100 µM (inactive)	> 100 µM (inactive)	> 100 µM (inactive)	> 100 µM (inactive)	> 100 µM (inactive)	> 100 µM (inactive)	> 100 µM (inactive)		> 100 µM (inactive)	> 100 µM (inactive)	> 100 µM (inactive)	> 100 µM (inactive)	> 100 µM (inactive)	> 100 µM (inactive)	> 100 µM (inactive)
